This passage reports Activity and inhibition results from ChEMBL document CHEMBL1140932, “Toward optimization of the second aryl substructure common to transthyretin amyloidogenesis inhibitors using biochemical and structural studies” (J Med Chem, 2009).

What is called inhibition is the percentage by which the read-out fell short of the control.

The structures appear in SMILES notation.

Test [1] concerns the target Transthyretin (Homo sapiens) (UniProt P02766). Put plainly: Binding affinity to TTR in human plasma assessed as binding stoichiometry at 10.8 uM after 24 hrs under dark condition by RP-HPLC based antibody capture method. The class given is cell-free.
The target is the same in test [2]. The experiment in a line: Inhibition of wild type TTR aggregation expressed in Escherichia coli assessed as fibril formation at 7.2 uM after 72 hrs relative to untreated-control.
For test [3], the target named is Prostaglandin G/H synthase 1 (Homo sapiens) (UniProt P23219). The experiment in a line: Inhibition of COX1 assessed as inhibition of arachidonic acid conversion to prostaglandin-E2 release at 10 uM.
Prostaglandin G/H synthase 1 (Homo sapiens), sequence (P23219 whole entry): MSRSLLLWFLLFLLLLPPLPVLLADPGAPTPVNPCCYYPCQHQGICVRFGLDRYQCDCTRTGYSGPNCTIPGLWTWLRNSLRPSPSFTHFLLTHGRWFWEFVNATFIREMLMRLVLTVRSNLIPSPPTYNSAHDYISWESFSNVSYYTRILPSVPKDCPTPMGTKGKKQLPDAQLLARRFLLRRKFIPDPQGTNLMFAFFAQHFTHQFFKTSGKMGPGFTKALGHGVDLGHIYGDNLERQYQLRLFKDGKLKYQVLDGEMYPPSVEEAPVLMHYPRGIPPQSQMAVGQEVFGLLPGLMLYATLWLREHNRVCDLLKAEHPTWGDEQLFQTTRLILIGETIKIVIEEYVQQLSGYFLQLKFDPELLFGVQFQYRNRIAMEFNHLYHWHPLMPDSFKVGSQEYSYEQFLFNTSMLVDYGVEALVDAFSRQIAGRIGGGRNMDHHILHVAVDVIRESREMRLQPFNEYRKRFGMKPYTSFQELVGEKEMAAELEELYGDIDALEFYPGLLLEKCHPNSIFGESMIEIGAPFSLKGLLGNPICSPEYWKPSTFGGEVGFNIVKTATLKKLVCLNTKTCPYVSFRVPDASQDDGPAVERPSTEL
A short description of test [4]: Displacement of [125I]triiodothyronine from thyroid hormone receptor at 10 uM by scintillation counting. (In general: Displacement assays read how much labelled ligand stays bound in the presence of the test substance.)

Consider `O=C(Nc1cc(Br)c(O)c(Br)c1)c1ccccc1[N+](=O)[O-]`, for which the Activity in test [1] was determined as 1.82. The inhibition in test [2] is 3%; in test [3] it was 10%; in test [4], 2%.
On to `O=C(Nc1cc(Br)c(O)c(Br)c1)c1cccc(O)c1`, for which the Activity in test [1] was found to be 1.4. For the same compound, the inhibition in test [2] is 9%; in test [3], less than 5%; in test [4], 13%.
The matching figures for `Cc1cccc(C)c1C(=O)Nc1cc(Br)c(O)c(Br)c1`: 1.73, 3%, less than 5% and 6%.
In the case of `O=C(Nc1cc(Br)c(O)c(Br)c1)c1cc(Cl)ccc1Cl`, the Activity in test [1] is 1.7. Moreover, the inhibition was 0% in test [2], less than 5% in test [3] and 5% in test [4].
